Test results as given in ChEMBL document CHEMBL2073866, “Cellular pharmacokinetic aspects of reversal effect of itraconazole on P-glycoprotein-mediated resistance of anticancer drugs” (Biol Pharm Bull, 1999).
Each block holds one compound with its values, some of them ahead of it.

Experiments:
[1] = molecular target: T1, ATP-dependent translocase ABCB1 (Homo sapiens, UniProt P08183); assay: TP_TRANSPORTER: inhibition of Azidopine photoaffinity labelling (Azidopine: 0.4 uM, Daunorubicin: 400 uM) in membranes from MDR1-expressing LLC-PK1 cells; assay type: functional, cell membranes, Membrane; settings: pig, llc-pk1, 400 µM
T1 sequence (P08183 whole entry): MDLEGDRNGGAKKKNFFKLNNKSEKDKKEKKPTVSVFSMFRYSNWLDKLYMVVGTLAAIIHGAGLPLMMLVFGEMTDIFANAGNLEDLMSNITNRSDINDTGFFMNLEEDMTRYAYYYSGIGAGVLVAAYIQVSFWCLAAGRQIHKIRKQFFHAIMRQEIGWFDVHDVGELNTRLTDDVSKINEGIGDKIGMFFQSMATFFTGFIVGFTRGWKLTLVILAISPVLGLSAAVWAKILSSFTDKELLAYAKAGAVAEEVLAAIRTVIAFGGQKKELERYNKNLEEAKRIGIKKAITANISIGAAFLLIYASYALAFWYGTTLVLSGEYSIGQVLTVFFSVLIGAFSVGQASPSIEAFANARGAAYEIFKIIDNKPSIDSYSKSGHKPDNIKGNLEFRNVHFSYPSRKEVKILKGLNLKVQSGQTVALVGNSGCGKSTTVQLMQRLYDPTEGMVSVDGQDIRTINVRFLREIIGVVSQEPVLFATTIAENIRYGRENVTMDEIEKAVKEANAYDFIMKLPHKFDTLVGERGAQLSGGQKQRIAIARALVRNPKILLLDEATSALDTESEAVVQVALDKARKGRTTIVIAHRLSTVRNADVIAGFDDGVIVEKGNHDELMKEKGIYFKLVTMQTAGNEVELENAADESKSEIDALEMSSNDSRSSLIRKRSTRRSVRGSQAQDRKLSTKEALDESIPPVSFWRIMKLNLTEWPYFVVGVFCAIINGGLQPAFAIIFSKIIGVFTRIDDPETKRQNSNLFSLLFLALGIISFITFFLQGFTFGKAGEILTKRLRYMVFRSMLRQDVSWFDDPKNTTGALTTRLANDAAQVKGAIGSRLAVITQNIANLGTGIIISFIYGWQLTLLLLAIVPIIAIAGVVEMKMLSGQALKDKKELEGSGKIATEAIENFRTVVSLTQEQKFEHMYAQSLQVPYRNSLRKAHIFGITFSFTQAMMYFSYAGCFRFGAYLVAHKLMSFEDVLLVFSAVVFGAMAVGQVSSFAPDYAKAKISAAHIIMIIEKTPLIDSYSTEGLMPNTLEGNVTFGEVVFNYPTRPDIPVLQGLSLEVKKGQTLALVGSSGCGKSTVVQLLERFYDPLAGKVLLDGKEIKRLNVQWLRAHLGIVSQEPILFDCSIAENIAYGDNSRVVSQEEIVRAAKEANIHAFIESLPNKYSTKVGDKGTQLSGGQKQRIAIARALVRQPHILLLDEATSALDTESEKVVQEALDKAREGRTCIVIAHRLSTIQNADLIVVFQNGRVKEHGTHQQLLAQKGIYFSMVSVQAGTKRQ

[2] = molecular target: T1, ATP-dependent translocase ABCB1; assay: TP_TRANSPORTER: transepithelial transport (basal to apical) in MDR1-expressing LLC-PK1 cells; assay type: functional, cell-based; settings: pig
[3] = molecular target: T1, ATP-dependent translocase ABCB1; assay: TP_TRANSPORTER: inhibition of Azidopine photoaffinity labelling (Azidopine: 0.4 uM, Doxorubicin: 400 uM) in membranes from MDR1-expressing LLC-PK1 cells; assay type: functional, cell membranes, Membrane; settings: pig, llc-pk1, 400 µM
[4] = molecular target: T1, ATP-dependent translocase ABCB1; assay: TP_TRANSPORTER: inhibition of Digoxin transepithelial transport (basal to apical) (Digoxin: 0.1 uM, Itraconazole: 100 uM) in MDR1-expressing LLC-PK1 cells; assay type: functional, cell-based; settings: pig, llc-pk1, 100 µM
[5] = molecular target: T1, ATP-dependent translocase ABCB1; assay: TP_TRANSPORTER: inhibition of Vinblastine transepithelial transport (basal to apical) (Vinblastine: 0.1 uM, Itraconazole: 100 uM) in MDR1-expressing LLC-PK1 cells; assay type: functional, cell-based; settings: pig, llc-pk1, 100 µM
[6] = molecular target: T1, ATP-dependent translocase ABCB1; assay: TP_TRANSPORTER: inhibition of Doxorubicin transepithelial transport (basal to apical) (Doxorubicin: 0.1 uM, Itraconazole: 100 uM) in MDR1-expressing LLC-PK1 cells; assay type: functional, cell-based; settings: pig, llc-pk1, 100 µM
[7] = molecular target: T1, ATP-dependent translocase ABCB1; assay: TP_TRANSPORTER: inhibition of Azidopine photoaffinity labelling in membranes from MDR1-expressing LLC-PK1 cells; assay type: functional, cell membranes, Membrane; settings: pig
[8] = molecular target: T1, ATP-dependent translocase ABCB1; assay: TP_TRANSPORTER: inhibition of Azidopine photoaffinity labelling (Azidopine: 0.4 uM, Vinblastine: 400 uM) in membranes from MDR1-expressing LLC-PK1 cells; assay type: functional, cell membranes, Membrane; settings: pig, llc-pk1, 400 µM

Activity [1]: inhibitor [+]
Activity [2]: substrate [+]
SMILES: COc1cccc2c1C(=O)c1c(O)c3c(c(O)c1C2=O)C[C@@](O)(C(C)=O)C[C@@H]3O[C@H]1C[C@H](N)[C@H](O)[C@H](C)O1 [DAUNORUBICIN]

Activity [3]: inhibitor [+]
SMILES: COc1cccc2c1C(=O)c1c(O)c3c(c(O)c1C2=O)C[C@@](O)(C(=O)CO)C[C@@H]3O[C@H]1C[C@H](N)[C@H](O)[C@H](C)O1 [DOXORUBICIN]

Activity [4]: inhibitor [+]
Activity [5]: inhibitor [+]
Activity [6]: inhibitor [+]
Activity [7]: inhibitor [+]
SMILES: CCC(C)n1ncn(-c2ccc(N3CCN(c4ccc(OCC5COC(Cn6cncn6)(c6ccc(Cl)cc6Cl)O5)cc4)CC3)cc2)c1=O (stereo not drawn) [ITRACONAZOLE]

Activity [8]: inhibitor [+]
SMILES: CC[C@]1(O)C[C@@H]2CN(CCc3c([nH]c4ccccc34)[C@@](C(=O)OC)(c3cc4c(cc3OC)N(C)[C@H]3[C@@](O)(C(=O)OC)[C@H](OC(C)=O)[C@]5(CC)C=CCN6CC[C@]43[C@@H]65)C2)C1 [VINBLASTINE]
